Test system: three different species of yeast and two distinct species of bacteria
Experiment: Growth inhibition of the yeast and bacteria strains of Table 5, summary
Assay type: cell-based
Procedure: For the experiments of the present invention (i) yeast strains obtained from clinical isolates and laboratory isolates, and (ii) bacterial strains obtained from laboratory isolates were used, as described in Table 5 as follows.
The yeast strains were grown in culture medium Sabouraud Dextrose Agar maintained at a temperature of 35° C. for 48 hours.
The bacterial strains were grown in culture medium Triptic Soy Agar at 35° C. for two to six hours (or until the turbidity of a McFarland standard solution equal to 0.5). 5.2 Mounting of Preparations and Test For the experiments, compound 1-[2-(2,4-dichlorophenyl)-2-{[4-(trifluoromethyl)benzyl]oxy}ethyl]-1H-imidazole (BL-123) in the form of its nitrate salt, 1-[2-(2,4-dichlorophenyl)]-2-({4-[(2-phenyl)-2H-tetrazole]benzyl}oxy)ethyl]-1H-imidazole (BL-137), and miconazole nitrate were used. The compounds were dissolved in dimethyl sulfoxide (DMSO) to match the final concentration of the compound equal to or less than 1%.
The methodology used to test the sensitivity of the agent was broth microdilution according to the method described in Standard M27-A2 (Reference method for broth dilution tests to determine the sensitivity of yeasts to antifungal therapy-second edition, NCCLS, volume 22 number 15, USA, 2002) as follows.
The yeast strains were grown according to item 5.1.a to obtain a culture containing between 1×10^6 and 5×10^6 CFU/mL. […]

## FC(F)(F)c1ccc(COC(Cn2ccnc2)c2ccc(Cl)cc2Cl)cc1 (stereo not shown) [BL-123, 1-[2-(2,4-dichlorophenyl)-2-{[4-(trifluoromethyl)benzyl]oxy}ethyl]-1H-imidazole]
  Inhibitory effect on growth (in words): exert an inhibitory effect on the growth
